Assay results published in patent US20090176817A1, “Method of Treatment of Diarrhea-Predominant Irritable Bowel Syndrome in a Subject” (priority 2005, published 2009).
Marks after values point to notes of the source that are not given here.

Legend:
clinical = details: human, in vivo, po
Description: Two randomized, double-blind, placebo controlled, rising dose, crossover studies evaluated the single-dose pharmacokinetics of oral cilansetron over a 4 mg to 64 mg dose range. In one study, 24 male subjects (aged 21-36 years) received, at intervals of […], single oral doses of 4, 8, and 16 mg cilansetron in ascending order and a randomized placebo. In the other study, 24 male subjects received, at intervals of ≧1 week, single oral doses of 16, 32, and 64 mg cilansetron in ascending order and a randomized placebo. All doses were administered under fasted conditions. […] Renal excretion of cilansetron was negligible across all doses, with undetectable or very low amounts (<1% of the dose) excreted unchanged in urine.
Data for the evaluation of dose proportionality of oral cilansetron is available from three studies which have evaluated the pharmacokinetics of single doses over a 2 mg to 64 mg dose range. Two randomized, double-blind, placebo controlled, rising dose, crossover studies, in 24 male subjects each, evaluated the single dose pharmacokinetics of oral cilansetron (capsules) over a 4-16 mg and 16-64 mg dose range, respectively. In each study, subjects received, at intervals of ≧1 week, single oral doses of cilansetron in ascending order and a randomized placebo. All doses were administered under fasted conditions. A third open-label, randomized, parallel-group study in 36 male and female subjects, evaluated the single dose pharmacokinetics of a cilansetron 2 mg tablet administered under fed conditions. FIG. 16 to FIG. 19 present box plots of cilansetron AUC(0-inf) and Cmax from these three studies (males only), and corresponding dose-normalized values (normalized to a 1 mg dose). […] Table 2.7.2.3.14 presents descriptive statistics of cilansetron dose-normalized AUC and Cmax in these studies, and the results of statistical comparisons between doses.

healthy subjects = test: Study K.241.5012: colonic transit time, healthy young subjects; format: in vivo, human; details: mean (SD); for Transit Times, Colon Total: null hypothesis not rejected vs placebo
Description: The effect of cilansetron on gastric emptying time and colonic transit time has been studied in 1 clinical study in healthy young subjects and 2 studies in elderly subjects. For measurement of gastric emptying time, breath samples for the determination of the ^12C/^13C ratio were taken on the last day of each treatment period immediately after ingestion of a ^13C labeled meal. The patients' breath was collected in separate 15-minute intervals, for four hours in total. ^13CO2 measurements were performed with an isotope ratio mass spectrometer. The half-life (TK) and lag-time (Tlag), which describe the duration of gastric emptying, were used as the primary parameters to evaluate gastric emptying time. In all 3 studies, colonic transit time was measured by administration of radio-opaque markers for the last six days of each treatment period, followed by a single abdominal X-ray image at 24 hours after ingestion of the last set of markers. The numbers of markers within the colon were used to calculate segmental (right colon, left colon, and rectosigmoid) and total colonic transit time.
Study K.241.5013 was a randomized, double-blind, placebo-controlled, 3-way crossover study in 12 healthy male subjects (ITT population), aged 20-27 years. Subjects received cilansetron 4 mg, cilansetron 8 mg, or placebo orally TID for 14 days during each of the treatment periods, with a 14-day washout between periods. The primary efficacy parameter was the total mean colonic transit time during each treatment and the secondary parameters were the segmental colonic transit times and the gastric emptying measurements. A one-sided Dunnett t-test procedure was used to compare efficacy parameters between the cilansetron and placebo treatments.

SMILES: Cc1nccn1C[C@H]1CCc2c(c3cccc4c3n2CCC4)C1=O [Cilansetron, (R)-(−)-4,5,6,8,9,10-hexahydro-10-[(2-methyl-1H-imidazol-1-yl)methyl]-11H-pyrido-[3,2,1-jk]-carbazol-11-one]
- CL/F (clinical; 4 mg): 3864 (69) mL/min
- CL/F (clinical; 8 mg): 3851 (103) mL/min
- DN-AUC(0-inf) ratio 8 mg/4 mg (clinical; male): 109%
- DN-AUC(0-inf) ratio 16 mg/4 mg (clinical; male): 117%
- DN-AUC(0-inf) ratio 16 mg/8 mg (clinical; male): 108%
- DN-AUC(0-last) ratio 8 mg/4 mg (clinical; male): 120%
- DN-AUC(0-last) ratio 16 mg/4 mg (clinical; male): 132%
- DN-AUC(0-last) ratio 16 mg/8 mg (clinical; male): 110%
- DN-Cmax ratio 8 mg/4 mg (clinical; male): 115%
- DN-Cmax ratio 16 mg/4 mg (clinical; male): 122%
- DN-Cmax ratio 16 mg/8 mg (clinical; male): 107%
- Dose excreted unchanged in urine (clinical; male): < 1%
- Tmax (clinical; male): 1 to 1.25 h
- half-life (clinical; male): 1.2 to 1.6 h
- AUC(0-inf) (clinical; male, 4 mg): 26.7 ng·h/mL
- AUC(0-t) (clinical; male, 4 mg): 23.2 ng·h/mL
- Cmax (clinical; male, 4 mg): 9.88 ng/mL
- Tmax (clinical; male, 4 mg): 1.25 h
- Vd/F (clinical; male, 4 mg): 522 L
- half-life (clinical; male, 4 mg): 1.56 h
- AUC(0-inf) (clinical; male, 8 mg): 59.4 ng·h/mL
- AUC(0-t) (clinical; male, 8 mg): 55.5 ng·h/mL
- Cmax (clinical; male, 8 mg): 22.1 ng/mL
- Tmax (clinical; male, 8 mg): 1 h
- Vd/F (clinical; male, 8 mg): 472 L
- half-life (clinical; male, 8 mg): 1.47 h
- Tmax (clinical; male, 16 mg): 1 h
- Transit Times, Colonic Segments Left (healthy subjects; 4 mg TID oral 14 days): 24.2 (12.9) hours
- Transit Times, Colonic Segments Rectosigmold (healthy subjects; 4 mg TID oral 14 days): 15.8 (13.5) hours
- Transit Times, Colonic Segments Right (healthy subjects; 4 mg TID oral 14 days): 9.4 (9.5) hours
- Transit Times, Colon Total (healthy subjects; 4 mg TID oral 14 days): 49.4 (24.6)^a hours
- Transit Times, Colonic Segments Left (healthy subjects; 8 mg TID oral 14 days): 25.8 (16.7) hours
- Transit Times, Colonic Segments Rectosigmold (healthy subjects; 8 mg TID oral 14 days): 16.2 (11.9) hours
- Transit Times, Colonic Segments Right (healthy subjects; 8 mg TID oral 14 days): 11.8 (13.9) hours
- Transit Times, Colon Total (healthy subjects; 8 mg TID oral 14 days): 53.8 (28.5)^a hours
